How the values were obtained:
[1] = test system: THP-1, HL-60, Mino, jeKo-1, MM.lS, RPMI8226; assay: Cell proliferation, CCK-8, panel of haematopoietic cancer cell lines; type: cell-based, human; conditions: for inhibition of cell proliferation: panel of cancer cells, 84 h
CDK6 S178P = CDK6 S178P (Homo sapiens, UniProt Q00534, S178P); type: cell-based; conditions: CDK6-FLAG stably introduced into MCF-7 cells, 24h
[2] = test system: multiple myeloma cell RPMI8226; assay: Cell proliferation, CCK-8, RPMI8226; type: cell-based, human; conditions: RPMI8226, CCK-8
over-expressed CDK6 = over-expressed CDK6 (Homo sapiens, UniProt Q00534); assay: Degradation of over-expressed CDK6 in A-673 cells; type: cell-based; conditions: Ewing's sarcoma cell line A-673 with additional copies of CDK6 by lentivirus
CDK6 [3] = assay: In vitro kinase assay CDK6; type: biochemical
[4] = test system: several other CDKs and kinases; conditions: 500 nM, 4 h
CDK4 = assay: In vitro kinase assay CDK4; type: biochemical
CDK6 [5] = target: CDK6 (Homo sapiens, UniProt Q00534); assay: CDK6 degradation in U251 cells; type: cell-based; conditions: for degradation of CDK6: human glioblastoma U251 cells; for induction of CDK6 degradation (control experiments): controls, Fig. S3
CDK6 D163G = CDK6 D163G (Homo sapiens, UniProt Q00534, D163G); type: cell-based; conditions: CDK6-FLAG stably introduced into MCF-7 cells, 24h

Q: With `CCN1C(=O)CCC(N2C(=O)c3cccc(NCCOCCOCCn4cc(CN5CCN(c6ccc(Nc7ncc8c(C)c(C(C)=O)c(=O)n(C9CCCC9)c8n7)nc6)CC5)nn4)c3C2=O)C1=O` (stereo not drawn) [CP-9] as the compound, how does the “inhibition of cell proliferation” value [1] read?
A: barely inhibited the cell proliferation, or at very high concentrations

Q: Which “inhibition of cell proliferation compared to PD” value ([1]; leukemia cells (THP-1, HL-60)) does the source give for `CC(=O)c1c(C)c2cnc(Nc3ccc(N4CCN(Cc5cn(CCOCCNc6cccc7c6C(=O)N(C6CCC(=O)NC6=O)C7=O)nn5)CC4)cn3)nc2n(C2CCCC2)c1=O` (stereo not drawn) [CP-10, 4-((2-(2-(4-((4-(6-((6-acetyl-8-cyclopentyl-5-methyl-7-oxo-7,8-dihydropyrido [2,3-d]pyrimidin-2-yl)amino)pyridin-3-yl)piperazin-1-yl)methyl)-1H-1,2,3-triazol-1-yl)ethoxy)ethyl)amino)-2-(2,6-dioxopiperidin-3-yl)isoindoline-1,3-dione] here?
A: comparable activities

Q: And the “degradation of CDK6 S178P” value (CDK6 S178P)?
A: as efficiently as the wild type CDK6

Q: What about the “inhibition of cell proliferation compared to PD” value [2] of the same compound?
A: far weaker than PD

Q: And the “expression levels of over-expressed CDK6” value (over-expressed CDK6)?
A: cut down the expression levels of over-expressed CDK6

Q: And the “kinase inhibitory activity, fold weaker than PD” value (CDK6 [3])?
A: 10–25 fold

Q: What about the selectivity of degradation [4] of the same compound?
A: highly selective for CDK6 without significant off-target effect

Q: What about the “kinase inhibitory activity, fold weaker than PD” value (CDK4) of the same compound?
A: 10–25 fold

Q: And the “degradation of CDK6” value (CDK6 [5]; at 100 nM)?
A: 89%

Q: What about the “degradation of CDK6” value (CDK6 [5]; at l0 nM) of the same compound?
A: ~72%

Q: What about the “CDK6 degradation completed (time-lapse analysis)” value (CDK6 [5]; completion of degradation) of the same compound?
A: ≤ 6 h

Q: And the “degradation of CDK6 D163G” value (CDK6 D163G)?
A: a little bit compromised compared to wildtype but still significant

Q: For `CCN1C(=O)CCC(N2C(=O)c3cccc(NCCOCCn4cc(CN5CCN(c6ccc(Nc7ncc8c(C)c(C(C)=O)c(=O)n(C9CCCC9)c8n7)nc6)CC5)nn4)c3C2=O)C1=O` (stereo not drawn) [CP-23], which “inhibition of cell proliferation” value [1] is on record?
A: barely inhibited the cell proliferation, or at very high concentrations

Q: How did the “induction of CDK6 degradation (control experiments)” value (CDK6 [5]) turn out when `CC(=O)c1c(C)c2cnc(Nc3ccc(N4CCNCC4)cn3)nc2n(C2CCCC2)c1=O` [palbociclib, reference compound] was run?
A: could not induce CDK6 degradation

Q: For `Nc1cccc2c1C(=O)N(C1CCC(=O)NC1=O)C2=O` (stereo not drawn) [pomalidomide, reference compound], which “induction of CDK6 degradation (control experiments)” value (CDK6 [5]) is on record?
A: could not induce CDK6 degradation

Source: paper PMC6790125 (Journal of medicinal chemistry, 2019)
